Structures are written as SMILES. Counter-ions that a name gives are not always drawn.

For data set [1] the following is noted: cited from earlier work.
For data set [2] the following is noted: doses of 15 mg/kg/day, biliary cirrhosis trials; cited from earlier work.
For another data set, the system named is Lewis Lung tumor cells. In words: Lewis Lung Model: tumor volume and lung metastasis. Type of data set: in vivo, Mice. From the text: The data is expressed as the mean +/−SEM. […] Analysis of lung metastasis is done in all the animals by counting metastasis in a stereomicroscope and by histochemical analysis of consecutive lung sections.
For data set [3] the following is noted: cited from earlier work. The source holds these as a separate data set.

For `CC[C@@]1(O)C(=O)OCc2c1cc1n(c2=O)Cc2cc3c(CN(C)C)c(O)ccc3nc2-1` [Topotecan hydrochloride, (S)-10-((dimethylamino)methyl)-4-ethyl-4,9-dihydroxy-1H-pyrano(3′,4′:6,7)indolizino(1,2-B)quinoline-3,14-(4H,12H)-dione monohydrochloride], in data set [1] (mice, single IV infusion), the LD10 is on record as 75 mg/m^2.
On to `C[C@H](CCC(=O)O)[C@H]1CC[C@H]2[C@@H]3[C@@H](O)C[C@@H]4C[C@H](O)CC[C@]4(C)[C@H]3CC[C@]12C` [URSO], for which the tolerability and toxicity entry in data set [2] was “extremely well tolerated and without toxicity”.
Turning to `Cc1ccc(-c2cc(C(F)(F)F)nn2-c2ccc(S(N)(=O)=O)cc2)cc1` [Celecoxib, 4-[5-(4-methylphenyl)-3-(trifluoromethyl)-1H-pyrazol-1-yl]-benzenesulfonamide], the “size of the metastatic lesions in the lung” value in the data set with Lewis Lung tumor cells (histopathological analysis) is on record as “dose-dependently reduces the size of the metastasic lesions in the lung”. In addition, the “effect on lung metastasis” value with Lewis Lung tumor cells (lower dose of 160 ppm in the diet) is listed as “does not affect lung metastasis”.
For `CCc1c2c(nc3ccc(OC(=O)N4CCC(N5CCCCC5)CC4)cc13)-c1cc3c(c(=O)n1C2)COC(=O)[C@]3(O)CC.Cl` [Irinotecan hydrochloride, (4S)-4,11-diethyl-4-hydroxy-9-((4-piperidinopiperidino)carbonyloxy)-1H-pyrano(3′,4′:6,7)indolizino(1,2-b)quinoline-3,14(4H,12H)dione hydrochloride], in data set [1], the Lethality in mice result is recorded as “mice: 111 mg/kg”. Further, in data set [3], the Lethality in rats entry was “in rats: 73 mg/kg”.

These data come from patent US20020103141A1, “Antiangiogenic combination therapy for the treatment of cancer” (priority 1998, published 2002).
